For 21 compounds, T/C results are on record in PubChem BioAssay AID330 (DTP/NCI, 2004).

In this assay the test system is P388 leukemia ip, CD2F1 mice, survival T/C. Nature of the assay: NCI In Vivo Anticancer Drug Screen. Data for tumor model P388 Leukemia (intraperitoneal) in CD2F1 (CDF1) mice. Particulars: endpoint: median survival time, higher = longer survival. The method, boiled down:
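Mice carrying the transplanted tumor received test compound or vehicle. Survival was recorded in each group, and the value is the treated-group measurement divided by that of the vehicle-treated control group.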

Where [1] appears, read: dose: 50.0 mg/kg/injection, schedule: Q01DX009 (ip), vehicle: saline with Tween-80.
Where [2] appears, read: dose: 50.0 mg/kg/injection, schedule: Q01DX009 (ip), vehicle: suspension in saline.
The mark [3] stands for this setting: dose: 100.0 mg/kg/injection, schedule: Q01DX009 (ip), vehicle: saline with Tween-80.
[4] abbreviates: dose: 100.0 mg/kg/injection, schedule: Q01DX009 (ip), vehicle: suspension in saline.
[5] abbreviates: dose: 200.0 mg/kg/injection, schedule: Q01DX009 (ip), vehicle: saline with Tween-80.
[6] abbreviates: dose: 12.5 mg/kg/injection, schedule: Q01DX005 (ip), vehicle: saline with Tween-80.
The mark [7] stands for this setting: dose: 25.0 mg/kg/injection, schedule: Q01DX005 (ip), vehicle: saline with Tween-80.
[8] abbreviates: dose: 50.0 mg/kg/injection, schedule: Q01DX005 (ip), vehicle: saline with Tween-80.

Where “and” joins values, the source holds several entries; their conditions need not be identical. Equal entries are not always repeated. Inconclusive results and toxic doses are left out.

As for `CC(=O)NCCc1nc(-c2nc(C(=O)NCCCCN)cs2)cs1`, the T/C (dose: 12.5 mg/kg/injection, schedule: Q01DX009 (ip), vehicle: water) is 100 % of control; the T/C (dose: 25.0 mg/kg/injection, schedule: Q01DX009 (ip), vehicle: water) is 98 % of control and 109 % of control; the T/C (dose: 50.0 mg/kg/injection, schedule: Q01DX009 (ip), vehicle: water) is 100 % of control and 113 % of control; the T/C (dose: 100.0 mg/kg/injection, schedule: Q01DX009 (ip), vehicle: water) was 103 % of control and 119 % of control; the T/C (dose: 200.0 mg/kg/injection, schedule: Q01DX009 (ip), vehicle: water) is 107 % of control; the T/C (dose: 400.0 mg/kg/injection, schedule: Q01DX009 (ip), vehicle: water) was 104 % of control.
Take `O=C(CCl)N1c2ccccc2Sc2c1ccc1ccccc21`: the T/C is 103 % of control (dose: 3.12 mg/kg/injection, schedule: Q01DX009 (ip), vehicle: saline with Tween-80); 104 % of control (dose: 6.25 mg/kg/injection, schedule: Q01DX009 (ip), vehicle: saline with Tween-80); 100 % of control (dose: 6.25 mg/kg/injection, schedule: Q01DX009 (ip), vehicle: suspension in saline); 120 % of control (dose: 12.5 mg/kg/injection, schedule: Q01DX009 (ip), vehicle: saline with Tween-80); 102 % of control and 122 % of control (dose: 12.5 mg/kg/injection, schedule: Q01DX009 (ip), vehicle: suspension in saline); 116 % of control (dose: 25.0 mg/kg/injection, schedule: Q01DX009 (ip), vehicle: saline with Tween-80). The T/C (dose: 25.0 mg/kg/injection, schedule: Q01DX009 (ip), vehicle: suspension in saline) was 103 % of control and 118 % of control; the T/C under setting [1] is 116 % of control; the T/C under setting [2] was 103 % of control; the T/C under setting [3] is 110 % of control; the T/C under setting [4] was 102 % of control and 123 % of control; the T/C (dose: 200.0 mg/kg/injection, schedule: Q01DX009 (ip), vehicle: suspension in saline) is 108 % of control.
Consider `CC(N)c1ccccc1` (configuration not stated) (tested in a mixture with another compound), for which the T/C by setting is: under setting [1], 104 % of control; under setting [3], 99 % of control; under setting [5], 99 % of control.
With `CCC(=O)NC(CC(C)C)C(=O)NC(CC(C)C)C(=O)NC(C=O)CCCN=C(N)N` (configuration not stated) (tested in a mixture with another compound), the T/C is 103 % of control (dose: 6.25 mg/kg/injection, schedule: Q01DX009 (ip), vehicle: saline); 102 % of control and 104 % of control (dose: 12.5 mg/kg/injection, schedule: Q01DX009 (ip), vehicle: saline); 104 % of control and 96 % of control (dose: 25.0 mg/kg/injection, schedule: Q01DX009 (ip), vehicle: saline); 102 % of control and 108 % of control (dose: 50.0 mg/kg/injection, schedule: Q01DX009 (ip), vehicle: saline); 110 % of control (dose: 100.0 mg/kg/injection, schedule: Q01DX009 (ip), vehicle: saline).
`CNC(=O)c1ccccc1NC(=O)c1ccccc1N=[N+]=[N-]`: the T/C (dose: 50.0 mg/kg/injection, schedule: Q01DX005 (ip), vehicle: Klucel (hydroxypropylcellulose) (HPC)) was 100 % of control; the T/C (dose: 100.0 mg/kg/injection, schedule: Q01DX005 (ip), vehicle: Klucel (hydroxypropylcellulose) (HPC)) was 100 % of control; the T/C (dose: 200.0 mg/kg/injection, schedule: Q01DX005 (ip), vehicle: Klucel (hydroxypropylcellulose) (HPC)) is 98 % of control.
Regarding `C=C(C)C(=O)OC1CCC2Cc3occ(C)c3C(OC(=O)C(=C)C)C2(C)C1C` (configuration not stated), the T/C runs as follows: (dose: 20.0 mg/kg/injection, schedule: Q01DX009 (ip), vehicle: saline with Tween-80) 93 % of control; (dose: 40.0 mg/kg/injection, schedule: Q01DX009 (ip), vehicle: saline with Tween-80) 102 % of control; (dose: 80.0 mg/kg/injection, schedule: Q01DX009 (ip), vehicle: saline with Tween-80) 93 % of control; (dose: 160.0 mg/kg/injection, schedule: Q01DX009 (ip), vehicle: saline with Tween-80) 93 % of control.
As to `Cc1nnc2c3[nH]c4ccccc4c3cnn12`, the T/C by setting is: (dose: 60.0 mg/kg/injection, schedule: Q01DX005 (ip), vehicle: saline) 104 % of control; (dose: 120.0 mg/kg/injection, schedule: Q01DX005 (ip), vehicle: saline) 95 % of control; (dose: 240.0 mg/kg/injection, schedule: Q01DX005 (ip), vehicle: saline) 103 % of control.
For `CCN(CC)CCN1N=C(c2ccccc2O)OCC1=O`, the T/C under setting [1] is 108 % of control, the T/C under setting [3] was 103 % of control and the T/C under setting [5] is 98 % of control.
Turning to `C[N+](C)(C)/C=C/c1ccc([N+](=O)[O-])o1`, the T/C by setting is: under setting [2], 100 % of control; under setting [4], 96 % of control.
Take `CC(=Nc1c[nH]c(=O)[nH]c1=O)c1ccccc1`: the T/C is 104 % of control (dose: 100.0 mg/kg/injection, schedule: Q04DX002 (ip), vehicle: suspension in saline); 101 % of control (dose: 200.0 mg/kg/injection, schedule: Q04DX002 (ip), vehicle: suspension in saline); 94 % of control (dose: 400.0 mg/kg/injection, schedule: Q04DX002 (ip), vehicle: suspension in saline).
Turning to `COc1cc2ccc3c(c2cc1OC)N(C)C(OC)c1cc2c(cc1-3)OCO2` (configuration not stated), the T/C (dose: 10.0 mg/kg/injection, schedule: Q01DX009 (ip), vehicle: Klucel (hydroxypropylcellulose) (HPC)) is 153 % of control; the T/C (dose: 40.0 mg/kg/injection, schedule: Q01DX009 (ip), vehicle: Klucel (hydroxypropylcellulose) (HPC)) is 173 % of control; the T/C (dose: 80.0 mg/kg/injection, schedule: Q01DX009 (ip), vehicle: Klucel (hydroxypropylcellulose) (HPC)) is 110 % of control.
Regarding `CC(=N\O)/C(C)=N/O.CC(=N\O)/C(C)=N/O.CCCC1CC[N-]CC1.CCCC1CC[N-]CC1.CCCC1CC[N-]CC1.CCCC1CC[N-]CC1.[Cl-].[Cl-].[Cl][Rh][Cl].[Rh+3]`, the T/C (dose: 2.78 mg/kg/injection, schedule: Q01DX009 (ip), vehicle: saline with Tween-80) was 120 % of control.
With `BrCc1ccc2ccc3ccc(CBr)nc3c2n1`, the T/C is 103 % of control (dose: 7.5 mg/kg/injection, schedule: Q01DX005 (ip), vehicle: saline with Tween-80); 115 % of control (dose: 15.0 mg/kg/injection, schedule: Q01DX005 (ip), vehicle: saline with Tween-80); 106 % of control (dose: 30.0 mg/kg/injection, schedule: Q01DX005 (ip), vehicle: saline with Tween-80).
Turning to `CN(C)/C=C(/N=C(C#N)C#N)C1OCCO1`, the T/C is 100 % of control under setting [6], 112 % of control under setting [7] and 117 % of control under setting [8].
Consider `CC(C(=O)O)c1ccc(C(=O)c2cccs2)cc1` (configuration not stated), for which the T/C under setting [1] is 97 % of control, the T/C under setting [3] is 97 % of control and the T/C under setting [5] was 97 % of control.
For the compound `CCCCN(CCCC)C(=N)c1c2ccccc2nc2ccccc12`, the T/C is 90 % of control (dose: 6.25 mg/kg/injection, schedule: Q01DX005 (ip), vehicle: saline); 97 % of control (dose: 12.5 mg/kg/injection, schedule: Q01DX005 (ip), vehicle: saline); 103 % of control (dose: 25.0 mg/kg/injection, schedule: Q01DX005 (ip), vehicle: saline).
On to `CCN(C)c1cc(=O)c2ccc3ccccc3c2o1`, for which the T/C runs as follows: under setting [1], 101 % of control; under setting [3], 105 % of control.
As to `NC(Cc1ccc(OC2CCCC2)c(N(CCCl)CCCl)c1)C(=O)O` (configuration not stated), the T/C was 168 % of control (dose: 7.5 mg/kg/injection, schedule: Q04DX003 (ip), vehicle: saline); 168 % of control (dose: 15.0 mg/kg/injection, schedule: Q04DX003 (ip), vehicle: saline); 218 % of control (dose: 30.0 mg/kg/injection, schedule: Q04DX003 (ip), vehicle: saline).
Take `CC1(C)NC(=O)N(Br)C1=O`: the T/C is 104 % of control under setting [1], 100 % of control under setting [3] and 104 % of control under setting [5].
As for `CC(C)CCc1c(N)nc(N)[nH]c1=O`, the T/C is 101 % of control under setting [6], 97 % of control under setting [7] and 97 % of control under setting [8].
Regarding `c1ccc2c(NCCCCCNc3c4ccccc4nc4ccccc34)c3ccccc3nc2c1`, the T/C is 103 % of control (dose: 0.63 mg/kg/injection, schedule: Q01DX009 (ip), vehicle: other); 108 % of control (dose: 1.25 mg/kg/injection, schedule: Q01DX009 (ip), vehicle: other); 100 % of control (dose: 2.5 mg/kg/injection, schedule: Q01DX009 (ip), vehicle: other); 112 % of control (dose: 3.75 mg/kg/injection, schedule: Q01DX009 (ip), vehicle: other); 117 % of control (dose: 5.0 mg/kg/injection, schedule: Q01DX009 (ip), vehicle: other); 122 % of control (dose: 10.0 mg/kg/injection, schedule: Q01DX009 (ip), vehicle: other).
